pEC50: −log10 of the molar value.
Columns and labels:
[1] = target: T1, Beta-3 adrenergic receptor (Homo sapiens, UniProt P13945); assay: Agonism of recombinant human beta-3 adrenergic receptor assayed by measuring cAMP accumulation in CHO cells expressing beta3-AR; format: functional, cell-based
Target sequence in this assay (P13945 whole entry): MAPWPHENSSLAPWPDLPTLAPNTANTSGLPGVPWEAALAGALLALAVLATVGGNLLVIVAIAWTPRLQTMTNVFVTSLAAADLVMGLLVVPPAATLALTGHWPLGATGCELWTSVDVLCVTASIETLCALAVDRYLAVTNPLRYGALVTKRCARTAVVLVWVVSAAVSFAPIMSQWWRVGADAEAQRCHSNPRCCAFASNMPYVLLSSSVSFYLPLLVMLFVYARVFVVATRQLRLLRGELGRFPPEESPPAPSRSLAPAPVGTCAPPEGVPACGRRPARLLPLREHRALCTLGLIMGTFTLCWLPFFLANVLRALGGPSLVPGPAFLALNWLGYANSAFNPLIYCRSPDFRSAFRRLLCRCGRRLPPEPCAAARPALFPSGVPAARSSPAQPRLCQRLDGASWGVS

[2] = target: T1, Beta-3 adrenergic receptor; assay: Agonistic activity to recombinant human beta-3 adrenergic receptor expressed in CHO cells by measuring cAMP accumulation; format: functional, cell-based
Target sequence in this assay (P13945 whole entry, looked up): as the sequence (P13945 whole entry) above

[3] = target: T1, Beta-3 adrenergic receptor; assay: Agonistic activity against human Beta-3 adrenergic receptor by measuring cAMP accumulation in CHO cells expressing beta3-AR with respect to isoproterenol at a concentration of 10e-7 M; format: functional, cell-based
Target sequence in this assay (P13945 whole entry, looked up): as the sequence (P13945 whole entry) above

[4] = target: T1, Beta-3 adrenergic receptor; assay: (§1) Agonistic activity against human Beta-3 adrenergic receptor by measuring cAMP accumulation in CHO cells expressing Beta-3 adrenergic receptor; format: functional, cell-based
Target sequence in this assay (P13945 whole entry, looked up): as the sequence (P13945 whole entry) above

[5] = target: Beta-3 adrenergic receptor (Rattus norvegicus) (UniProt P26255); assay: Agonistic activity against rat Beta-3 adrenergic receptor as cAMP accumulation in CHO cells expressing beta3-AR
[6] = target: Beta-1 adrenergic receptor (Homo sapiens, UniProt P08588); assay: Agonistic activity against human Beta-1 adrenergic receptor by measuring cAMP accumulation in CHO cells expressing beta3-AR; format: functional, cell-based
[7] = target: Beta-3 adrenergic receptor (Rattus norvegicus) (UniProt P26255); assay: Agonistic activity against rat Beta-3 adrenergic receptor as cAMP accumulation in CHO cells expressing beta3-AR; remark: listed apart in the source
[8] = target: T1, Beta-3 adrenergic receptor; assay: as §1; format: functional, cell-based; remark: listed apart in the source
Target sequence in this assay (P13945 whole entry): as above

[9] = target: T2, Beta-2 adrenergic receptor (Homo sapiens, UniProt P07550); assay: (§2) Agonistic activity against human Beta-2 adrenergic receptor by measuring cAMP accumulation in CHO cells expressing beta3-AR; format: functional, cell-based
Target sequence in this assay (P07550 whole entry): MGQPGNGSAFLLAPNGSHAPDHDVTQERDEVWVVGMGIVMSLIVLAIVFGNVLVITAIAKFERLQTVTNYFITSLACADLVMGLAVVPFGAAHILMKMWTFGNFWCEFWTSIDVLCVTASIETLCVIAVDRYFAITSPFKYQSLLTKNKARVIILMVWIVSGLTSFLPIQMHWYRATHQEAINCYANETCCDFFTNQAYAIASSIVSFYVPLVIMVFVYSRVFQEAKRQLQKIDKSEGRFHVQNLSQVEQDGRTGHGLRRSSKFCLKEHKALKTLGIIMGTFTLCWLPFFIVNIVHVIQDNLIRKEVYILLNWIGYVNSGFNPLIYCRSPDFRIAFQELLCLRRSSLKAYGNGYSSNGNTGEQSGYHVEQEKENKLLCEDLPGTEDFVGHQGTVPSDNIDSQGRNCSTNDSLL

[10] = target: T2, Beta-2 adrenergic receptor; assay: as §2; format: functional, cell-based; remark: listed apart in the source
Target sequence in this assay (P07550 whole entry, looked up): as the sequence (P07550 whole entry) above

[11] = target: T1, Beta-3 adrenergic receptor; assay: Agonistic activity against human Beta-3 adrenergic receptor by measuring cAMP accumulation in CHO cells expressing Beta-3 adrenergic receptor with respect to isoproterenol at a concentration of 10e-7 M; format: functional, cell-based
Target sequence in this assay (P13945 whole entry, looked up): as the sequence (P13945 whole entry) above

[12] = target: T1, Beta-3 adrenergic receptor; assay: Agonistic activity against human beta-3-adrenergic receptor by measuring cAMP accumulation in CHO cells expressing Beta-3 adrenergic receptor; format: functional, cell-based
Target sequence in this assay (P13945 whole entry, looked up): as the sequence (P13945 whole entry) above

[13] = target: T1, Beta-3 adrenergic receptor; assay: Agonistic activity against human Beta-3 adrenergic receptor by measuring cAMP accumulation in CHO cells; format: functional, cell-based
Target sequence in this assay (P13945 whole entry, looked up): as the sequence (P13945 whole entry) above

Sequence of Beta-1 adrenergic receptor (P08588 whole entry): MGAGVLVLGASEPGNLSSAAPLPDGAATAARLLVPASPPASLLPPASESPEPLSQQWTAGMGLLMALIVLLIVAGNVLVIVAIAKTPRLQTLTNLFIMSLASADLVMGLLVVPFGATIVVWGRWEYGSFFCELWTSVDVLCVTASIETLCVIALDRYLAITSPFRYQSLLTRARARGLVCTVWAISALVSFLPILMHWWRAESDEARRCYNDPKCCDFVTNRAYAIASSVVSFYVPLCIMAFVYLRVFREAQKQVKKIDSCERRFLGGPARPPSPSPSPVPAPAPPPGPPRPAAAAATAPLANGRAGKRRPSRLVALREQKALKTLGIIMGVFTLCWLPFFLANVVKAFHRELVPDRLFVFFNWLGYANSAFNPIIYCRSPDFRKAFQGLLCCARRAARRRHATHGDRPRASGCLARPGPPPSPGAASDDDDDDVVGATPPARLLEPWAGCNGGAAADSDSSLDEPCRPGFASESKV

CC(Cc1c[nH]c2c(OC(C)C)cccc12)NC[C@H](O)c1cccc(Cl)c1 (some centres undefined)
pEC50 [1]: 8.55 | Intrinsic activity [2]: 87%

Cc1[nH]c2ccccc2c1CCNCC(O)c1cccc(Cl)c1 (centres undefined)
cAMP accumulation [3]: 5%

Cc1ccc2c(CC(C)NCC(O)c3cccc(Cl)c3)c[nH]c2c1 (centres undefined)
Intrinsic activity [2]: 95%

OC(CNC1CCc2[nH]c3ccccc3c2C1)c1cccc(Cl)c1 (centres undefined)
cAMP accumulation [3]: 0%

CC(Cc1c[nH]c2ccccc12)NCC(O)c1cccc(Cl)c1 (centres undefined) [listing 1 of 2 here]
Intrinsic activity [4]: 114%

C[C@@H](Cc1c[nH]c2ccccc12)NC[C@H](O)c1cccc(Cl)c1
pEC50 [1]: 6.62 | Intrinsic activity [2]: 97% | pEC50 [5]: 7.89 | pEC50 [6]: 8.03 | Intrinsic activity [7]: 96%

CC(Cc1c[nH]c2ccccc12)NCC(O)c1cccc(Cl)c1 (centres undefined) [listing 2 of 2 here]
pEC50 [8]: 7.92

COc1cccc2c(C[C@@H](C)NC[C@H](O)c3cccc(Cl)c3)c[nH]c12
pEC50 [1]: 9.44 | pEC50 [9]: 8.28 | Intrinsic activity [10]: 46% | Intrinsic activity [2]: 89% | pEC50 [5]: 9.82 | Intrinsic activity [7]: 147%

COc1cccc2c(CC(C)NC[C@H](O)c3cccc(Cl)c3)c[nH]c12 (some centres undefined)
Intrinsic activity [2]: 114%

Cc1ccc2[nH]cc(CCNCC(O)c3cccc(Cl)c3)c2c1 (centres undefined)
cAMP accumulation [3]: 7%

Cc1cccc2[nH]cc(CC(C)NCC(O)c3cccc(Cl)c3)c12 (centres undefined)
pEC50 [1]: 7.02 | Intrinsic activity [2]: 165%

CCC(Cc1c[nH]c2ccccc12)NCC(O)c1cccc(Cl)c1 (centres undefined)
cAMP accumulation [11]: 20%

CCOc1cccc2c(CC(C)NC[C@H](O)c3cccc(Cl)c3)c[nH]c12 (some centres undefined)
Intrinsic activity [2]: 96%

CC(C)(Cc1c[nH]c2ccccc12)NCC(O)c1cccc(Cl)c1 (centres undefined)
Intrinsic activity [12]: 118% | pEC50 [8]: 7.15

CC(Cc1c[nH]c2ccccc12)NCC(O)c1cccc(Cl)c1 (mixture of isomers) [listing 1 of 2 here]
pEC50 [1]: 7.92 | pEC50 [9]: 7.64 | pEC50 [5]: 9.01

CC(Cc1c[nH]c2c(OCc3ccccc3)cccc12)NC[C@H](O)c1cccc(Cl)c1 (some centres undefined)
pEC50 [1]: 7.96 | Intrinsic activity [2]: 114%

C[C@H](Cc1c[nH]c2ccccc12)NC[C@H](O)c1cccc(Cl)c1
pEC50 [1]: 8.27 | pEC50 [9]: 7.60 | Intrinsic activity [10]: 50% | Intrinsic activity [2]: 110% | pEC50 [5]: 9.44 | pEC50 [6]: 8.72 | Intrinsic activity [7]: 98%

Cc1cccc2c(CCNCC(O)c3cccc(Cl)c3)c[nH]c12 (centres undefined)
cAMP accumulation [3]: 0%

COC(=O)COc1cccc2c(CC(C)NC[C@H](O)c3cccc(Cl)c3)c[nH]c12 (some centres undefined)
pEC50 [1]: 9.04 | Intrinsic activity [2]: 102%

CC(Cc1c[nH]c2cc(Br)ccc12)NCC(O)c1cccc(Cl)c1 (centres undefined)
pEC50 [1]: 7.42 | Intrinsic activity [2]: 98%

CC(Cc1c[nH]c2cc(Cl)ccc12)NCC(O)c1cccc(Cl)c1 (centres undefined)
pEC50 [1]: 7.55 | Intrinsic activity [2]: 131%

OC(CNCCc1c[nH]c2ccccc12)c1cccc(Cl)c1 (centres undefined)
Intrinsic activity [13]: 99% | pEC50 [8]: 7.16

COc1cccc2c(C[C@H](C)NC[C@H](O)c3cccc(Cl)c3)c[nH]c12
pEC50 [1]: 6.92 | Intrinsic activity [2]: 51% | pEC50 [5]: 8.19 | Intrinsic activity [7]: 121%

C[C@@H](Cc1c[nH]c2ccccc12)NC[C@@H](O)c1cccc(Cl)c1
pEC50 [1]: 5.48 | Intrinsic activity [2]: 62% | pEC50 [5]: 7.48 | pEC50 [6]: 6.85 | Intrinsic activity [7]: 108%

CC(Cc1c[nH]c2c(OCC(=O)O)cccc12)NC[C@H](O)c1cccc(Cl)c1 (some centres undefined)
pEC50 [1]: 9.96 | Intrinsic activity [2]: 124%

C[C@H](Cc1ccc(OCC(=O)O)cc1)NC[C@H](O)c1cccc(Cl)c1
Intrinsic activity [10]: 31%

Cc1cccc2[nH]cc(CCNCC(O)c3cccc(Cl)c3)c12 (centres undefined)
cAMP accumulation [3]: 20%

CC(Cc1c[nH]c2c(O)cccc12)NC[C@H](O)c1cccc(Cl)c1 (some centres undefined)
pEC50 [1]: 8.77 | Intrinsic activity [2]: 128%

C[C@@H](Cc1c[nH]c2c(OCC(=O)O)cccc12)NC[C@H](O)c1cccc(Cl)c1
pEC50 [1]: 8.00 | Intrinsic activity [2]: 84% | pEC50 [5]: 8.92 | pEC50 [6]: 7.85 | Intrinsic activity [7]: 106%

Cn1cc(CCNCC(O)c2cccc(Cl)c2)c2ccccc21 (centres undefined)
cAMP accumulation [3]: 6%

CCCOc1cccc2c(CC(C)NC[C@H](O)c3cccc(Cl)c3)c[nH]c12 (some centres undefined)
pEC50 [1]: 7.85 | Intrinsic activity [2]: 103%

COc1cccc2c(CC(C)NCC(O)c3cccc(Cl)c3)c[nH]c12 (centres undefined)
Intrinsic activity [2]: 113%

CC(Cc1c[nH]c2ccccc12)NCC(O)c1cccc(Cl)c1 (mixture of isomers) [listing 2 of 2 here]
Intrinsic activity [10]: 46% | Intrinsic activity [2]: 114% | Intrinsic activity [7]: 107%

COc1ccc2c(CC(C)NCC(O)c3cccc(Cl)c3)c[nH]c2c1 (centres undefined)
Intrinsic activity [2]: 102%

C[C@H](Cc1c[nH]c2c(OCC(=O)O)cccc12)NC[C@H](O)c1cccc(Cl)c1 [RAFABEGRON]
pEC50 [1]: 10.21 | pEC50 [9]: 7.89 | Intrinsic activity [10]: 26% | Intrinsic activity [2]: 116% | pEC50 [5]: 10.80 | pEC50 [6]: 8.19 | Intrinsic activity [7]: 110%

C[C@H](Cc1c[nH]c2ccccc12)NC[C@@H](O)c1cccc(Cl)c1
pEC50 [1]: 6.66 | pEC50 [9]: 6.48 | Intrinsic activity [10]: 23% | Intrinsic activity [2]: 119% | pEC50 [5]: 7.96 | pEC50 [6]: 7.33 | Intrinsic activity [7]: 108%
